Source: patent US20080167314A1, “Condensed Imidazole Compound And Use Thereof” (priority 2004, published 2008)

Experiments:
[1] = biological target: T1, active form p38 MAP kinase (Homo sapiens, UniProt Q16539); assay: Measurement of the p38 MAP kinase inhibitory activity (32P uptake into Myelin Basic Protein); assay type: biochemical; conditions: 260 ng active form p38 MAP kinase, 1 μg Myelin Basic Protein, 2.5 μM ATP solution, 30° C. for 60 minutes
T1 construct: made in house; host or cells: Sf-21 insect cells, baculovirus BAC-HP38 co-infected with BAC-caMKK3
T1 sequence (Q16539 whole entry): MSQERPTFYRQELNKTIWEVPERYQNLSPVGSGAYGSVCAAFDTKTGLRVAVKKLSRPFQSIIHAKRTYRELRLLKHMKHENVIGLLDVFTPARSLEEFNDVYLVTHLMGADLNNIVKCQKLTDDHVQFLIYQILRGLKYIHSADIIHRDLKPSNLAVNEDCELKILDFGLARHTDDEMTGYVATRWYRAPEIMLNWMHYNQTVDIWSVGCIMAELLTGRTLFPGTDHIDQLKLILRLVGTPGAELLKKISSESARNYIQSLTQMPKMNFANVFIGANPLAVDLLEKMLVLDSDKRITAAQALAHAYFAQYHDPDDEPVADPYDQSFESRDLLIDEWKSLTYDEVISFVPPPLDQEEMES
Method: (1) Cloning of Human p38 MAP Kinase Gene and Preparation of Recombinant Baculovirus
Cloning of human p38 MAP kinase gene was performed by a PCR method using a primer set P38-U:
(3) Preparation of Active Form p38 MAP Kinase
The Sf-21 cells were seeded on 100 ml Sf-900II SFM medium (GIBCOBRL) to 1×10^6 cells/mL and cultured at 27° C. for 24 hours. After each 0.2 mL of the virusstock BAC-HP38 of recombinant Baculovirus and BAC-caMKK3 were added, the culturing was further performed for 48 hours. After the cells were separated from the culturing solution by centrifugation (3000 rpm, 10 min), the cells were washed twice with PBS. After the cells were suspended in 10 ml Lysis buffer (25 mM HEPES (pH 7.5), 1% Triton X, 130 mM NaCl, 1 mM EDTA, 1 mM DTT, 25 mM β-glycerophosphate, […], 1 mM APMSF, 1 mM Sodium orthovanadate), the cells were lysed by treating twice with a homogenizer (POLYTRON) at 20000 rpm for 2 minutes. By using Anti-FLAG M2 Affinity Gel (Eastman Chemical), active form p38 MAP kinase was purified from the supernatant obtained by centrifugation (40000 rpm, 45 minutes).
(4) Measurement of the p38 MAP Kinase Inhibitory Activity
2.5 μL of a test compound dissolved in DMSO was added to 37.5 μL reaction solution (25 mM HEPES (pH 7.5), 10 mM Magnesium Acetate) containing 260 ng active form p38 MAP kinase and 1 μg Myelin Basic Protein, which was maintained at 30° C. for 5 minutes. The reaction was initiated by adding 10 μL ATP solution (2.5 μM ATP, 0.1 μCi [g-^32P]ATP). After the reaction was performed at 30° C. for 60 minutes, the reaction was stopped by adding 50 μL 20% TCA solution. After the reaction solution was allowed to stand at 0° C. for 20 minutes, an acid insoluble fraction was transferred to GF/C filter (Packard Japan) using Cell Harvester (Packard Japan) and washed with 250 mM H3PO4. After drying at 45° C. for 60 minutes, […] Microscint 0 (Packard Japan) was added and the radioactivity was measured with a TopCount (Packard Japan). The concentration (IC50 value) necessary for inhibiting uptake of ^32P into an acid insoluble fraction by 50% was calculated with PRISM 2.01 (Graphpad Software).

[2] = tested on: MMP-13 production in human normal articular chondrocytes; assay: Measurement of MMP-13 production inhibitory activity in rhIL-1β-stimulated human normal articular chondrocytes (ELISA); assay type: cell-based; conditions: Chondrocyte, rhIL-1β 0.1 ng/mL, 24 hr, MMP-13 in culture supernatant by ELISA
Method: Measurement of MMP-13 Production Inhibitory Activity
Human normal articular chondrocytes (Camblex) were grown in a chondrocyte growth medium (CGM: Camblex), and the cells were suspended in a chondrocyte differentiation medium (CDM: Camblex) and plated on a 96 well plate at 2×10^4 cells/well (150 μL/well). After culturing for 3 days under 37° C., 5% CO2 conditions, the culture medium was exchanged to 0.1% BSA added α-modification of Eagle's (α-MEM: Gibco), and the cells were cultured for 4 hr. The compound was added thereto and, after culture for 1 hr, recombinant human IL-1β (rhIL-1β: R&D systems) was added at 0.1 ng/mL. After culture for 24 hr, the culture supernatant was recovered, and the concentration of MMP-13 in the culture supernatant was measured by the ELISA method (Amersham).

[3] = tested on: TNF-α production in THP-1 cells; assay: Measurement of TNF-α production inhibitory activity in LPS-stimulated THP-1 cells (ELISA); assay type: cell-based; conditions: Homo sapiens, LPS 5 μg/mL, 4 hours, TNF-α in supernatant by ELISA
Method: Measurement of TNF-α Production Inhibitory Activity
After THP-1 cells which had been cultured in PRMI 1640 medium (manufactured by Life Technologies, Inc.) containing 1% non-activated bovine fetal serum (manufactured by Life Technologies, Inc., U.S.A.) and 10 mM HEPES (pH 7.5) was plated on a 96-well plate to 1×10^5 cells/well, 1 μL test compound dissolved in DMSO was added to there. After incubation at 37° C. for 1 hour in a CO2 incubator, LPS (Wako Pure Chemicals) was added to the final concentration 5 μg/mL. After cultured at 37° C. for 4 hours in a CO2 incubator, the supernatant was obtained by centrifugation. The concentration of TNF-α in the supernatant was measured with ELISA (R&D System, Quantikine Kit). The concentration (IC50 value) necessary for inhibiting TNF-α production by 50% was calculated by PRIMS 2.01 (Graphpad Software).

Row | IC50 [1] [µM] | IC50 [3] [µM] | SMILES | IC50 [2] [µM]
1 | 0.11 | 0.95 | Cc1cccc(-c2nc3ccc(Cl)nn3c2-c2ccnc(F)c2)c1 [Example 1, 6-Chloro-3-(2-fluoropyridin-4-yl)-2-(3-methylphenyl)imidazo[1,2-b]pyridazine] | 0.6
2 | 0.19 | 0.028 | Cc1cccc(-c2nc3ccc(Cl)nn3c2-c2ccnc(NC3CCCCC3)c2)c1 [Example 2, 4-[6-Chloro-2-(3-methylphenyl)imidazo[1,2-b]pyridazin-3-yl]-N-cyclohexylpyridin-2-amine] | 0.011
3 | 0.16 | 0.32 | Cc1cccc(-c2nc3cccnn3c2-c2ccnc(F)c2)c1 [Example 4, 3-(2-fluoropyridin-4-yl)-2-(3-methylphenyl)imidazo[1,2-b]pyridazine] | 1.52
4 | 0.0025 | 0.0039 | Cc1cccc(-c2nc3cccnn3c2-c2ccnc(NCC3CC3)c2)c1 [Example 5, N-(Cyclopropylmethyl)-4-[2-(3-methylphenyl)imidazo[1,2-b]pyridazin-3-yl]pyridin-2-amine] | 0.011
5 | 0.0087 | 0.0001 | Cc1cccc(-c2nc3ccc(N(C)C)nn3c2-c2ccnc(NC3CCCCC3)c2)c1 [Example 7, 3-[2-(cyclohexylamino)pyridin-4-yl]-N,N-dimethyl-2-(3-methylphenyl)imidazo[1,2-b]pyridazin-6-amine] | 0.0051
6 | 0.023 | 0.12 | CC(=O)Nc1cc(-c2c(-c3cccc(C)c3)nc3ccc(Cl)nn23)ccn1 [Example 17, N-{4-[6-Chloro-2-(3-methylphenyl)imidazo[1,2-b]pyridazin-3-yl]pyridin-2-yl}acetamide] | 0.22
7 |  | 0.018 | Cc1cccc(-c2nc3cccnn3c2-c2ccnc(NC(=O)c3ccccc3)c2)c1 [Example 19, N-{4-[2-(3-Methylphenyl)imidazo[1,2-b]pyridazin-3-yl]pyridin-2-yl}benzamide] | 0.073
8 | 0.0084 | 0.018 | Cc1ccc(C(=O)Nc2cc(-c3c(-c4cccc(C)c4)nc4cccnn34)ccn2)cc1 [Example 20-1, 4-methyl-N-{4-[2-(3-methylphenyl)imidazo[1,2-b]pyridazin-3-yl]pyridin-2-yl}benzamide] | 0.073
9 | 0.0012 | 0.014 | COc1ccc(C(=O)Nc2cc(-c3c(-c4ccc(F)c(C)c4)nc4cccnn34)ccn2)cc1 [Example 21-16, N-{4-[2-(4-fluoro-3-methylphenyl)imidazo[1,2-b]pyridazin-3-yl]pyridin-2-yl}-4-methoxybenzamide] | 0.041
10 | 0.022 | 0.33 | Cc1cccc(-c2nc3cccnn3c2-c2ccnc(NC(=O)Nc3ccccc3)c2)c1 [Example 26, N-{4-[2-(3-Methylphenyl)imidazo[1,2-b]pyridazin-3-yl]pyridin-2-yl}-N′-phenylurea] | 0.077
11 | 0.0081 | 0.015 | Cc1cc(-c2nc3cccnn3c2-c2ccnc(NC(=O)c3ccc(F)cc3)c2)ccc1F [Example 41-1, 4-fluoro-N-{4-[2-(4-fluoro-3-methylphenyl)imidazo[1,2-b]pyridazin-3-yl]pyridin-2-yl}benzamide] | 0.035
12 | 0.0087 | 0.0095 | Cc1cc(-c2nc3cccnn3c2-c2ccnc(NC(=O)C3CC3)c2)ccc1F [Example 42-3, N-{4-[2-(4-fluoro-3-methylphenyl)imidazo[1,2-b]pyridazin-3-yl]pyridin-2-yl}cyclopropanecarboxamide] | 0.035
13 | 0.0077 | 0.0061 | CSCC(=O)Nc1cc(-c2c(-c3ccc(F)c(C)c3)nc3cccnn23)ccn1 [Example 42-6, N-{4-[2-(4-fluoro-3-methylphenyl)imidazo[1,2-b]pyridazin-3-yl]pyridin-2-yl}-2-(methylthio)acetamide] | 0.011
14 |  | 0.01 | Cc1cc(-c2nc3cccnn3c2-c2ccnc(NC(=O)c3ccncc3)c2)ccc1F [Example 42-23, N-{4-[2-(4-fluoro-3-methylphenyl)imidazo[1,2-b]pyridazin-3-yl]pyridin-2-yl}isonicotinamide] | 0.014
15 |  | 0.0015 | Cc1ccc(C(=O)Nc2cc(-c3c(-c4ccc(F)c(C)c4)nc4cccnn34)ccn2)cn1 [Example 42-27, N-{4-[2-(4-fluoro-3-methylphenyl)imidazo[1,2-b]pyridazin-3-yl]pyridin-2-yl}-6-methylnicotinamide] | 0.016
16 | 0.0039 | 0.0025 | Cc1cc(-c2nc3cccnn3c2-c2ccnc(NC(=O)c3ccc4ncsc4c3)c2)ccc1F [Example 42-35, N-{4-[2-(4-fluoro-3-methylphenyl)imidazo[1,2-b]pyridazin-3-yl]pyridin-2-yl}-1,3-benzothiazole-6-carboxamide] | 0.0062
17 | 0.0034 | 0.0071 | Cc1cc(-c2nc3cccnn3c2-c2ccnc(NC(=O)c3ccc4ncccc4c3)c2)ccc1F [Example 42-36, N-{4-[2-(4-fluoro-3-methylphenyl)imidazo[1,2-b]pyridazin-3-yl]pyridin-2-yl}-6-quinolinecarboxamide] | 0.011
18 | 0.007 | 0.01 | Cc1cc(-c2nc3cccnn3c2-c2ccnc(NC(=O)NCCO)c2)ccc1F [Example 51-11, N-{4-[2-(4-fluoro-3-methylphenyl)imidazo[1,2-b]pyridazin-3-yl]pyridin-2-yl}-N′-(2-hydroxyethyl)urea] | 0.064
19 | 0.0049 | 0.001 | Cc1cc(-c2nc3cccnn3c2-c2ccnc(NC(=O)NCCC#N)c2)ccc1F [Example 51-14, N-(2-cyanoethyl)-N′-{4-[2-(4-fluoro-3-methylphenyl)imidazo[1,2-b]pyridazin-3-yl]pyridin-2-yl}urea] | 0.032
20 |  | 0.0022 | Cc1cc(C(=O)Nc2cc(-c3c(-c4ccc(F)c(C)c4)nc4cccnn34)ccn2)ccn1 [Example 58, N-{4-[2-(4-Fluoro-3-methylphenyl)imidazo[1,2-b]pyridazin-3-yl]pyridin-2-yl}-2-methylisonicotinamide] | 0.041
21 |  | 0.0029 | Cc1cc(-c2nc3cccnn3c2-c2ccnc(NC(=O)c3cccnc3)c2)ccc1F [Example 59, N-{4-[2-(4-Fluoro-3-methylphenyl)imidazo[1,2-b]pyridazin-3-yl]pyridin-2-yl}nicotinamide] | 0.02
22 | 0.0026 | 0.0098 | Cc1cccc(-c2nc3cccnn3c2-c2ccnc(Nc3ccccc3C)c2)c1 [Example Compound 6-10, N-(2-methylphenyl)-4-[2-(3-methylphenyl)imidazo[1,2-b]pyridazin-3-yl]pyridin-2-amine] | 0.082
